Earlier results on 6 compounds are cited in patent US20080171791A1, “Compositions and Method for Losing Weight” (MDR Fitness Corp., priority 2007, published 2008).

For data set [1] the following is noted: long-term / large quantities / higher amounts ingested.
For data set [2], the system named is mammalian target of rapamycin (mTOR) signaling pathway. The note with it: rats; for food intake: administered near arcuate nucleus, approximately four hours after administration, lasted 24 hours.
For data set [3] the following is noted: in vivo.
Data set [4] deals with lipogenic genes. The conditions noted are these: compared with oleic acid (C18-1).

SMILES strings stand for the structures.

For `CCC(C)[C@H](N)C(=O)O` (stereo in doubt) [Isoleucine, (2S, 3S)-2-amino-3-methylpentanoic acid], the solubility in water entry is on record as “not soluble in water”. Moreover, the reported adverse effects result in data set [1] is recorded as “increased urination”.
Take `CC(C)C[C@H](N)C(=O)O` [L-leucine, leucine]: the solubility in water result was “slightly soluble in water”. The body weight result in data set [2] (accompanying decrease in food intake) is listed as “weight loss”. Further, the food intake entry in data set [2] is given as “decrease”. Besides, in data set [3], the “crossing the blood-brain barrier” value is reported as “capable of crossing the blood-brain barrier”.
`CC(C)[C@H](N)C(=O)O` [L-valine, valine]: the solubility in water entry was “water soluble”. Moreover, the food intake result in data set [2] was “did not cause the same effect”. The reported adverse effects entry in data set [1] is “hallucinations and crawling sensations on the skin”.
In the case of `CCCCC/C=C\C/C=C\C/C=C\C/C=C\CCCC(=O)O` [arachidonic acid], the “suppression of lipogenic genes” value in data set [4] is “more effective”.
For `CCCCC/C=C\C/C=C\CCCCCCCC(=O)O` [linoleic acid], the “suppression of lipogenic genes” value in data set [4] is given as “more effective”.
Turning to `CCCCCCCCC=CCCCCCCCC(=O)O` [oleic acid, 9-octadecenoic acid], in data set [3], the “absorption from the digestive tract” value was “absorbed intact” and the “crossing the blood-brain barrier” value is listed as “capable of crossing the blood-brain barrier”.
